Where a name gives a salt, the structure may show the parent alone.
Key:
[1] = molecular target: T1, CAT-1 (carnitine acyltransferase 1) (Rattus norvegicus, UniProt Q63704); experiment: Primary Screen--Inhibition of CAT-1 in isolated mitochondria; format: biochemical; conditions: rat heart mitochondria, reduction of palmitoyl carnitine formation by 50%; read-out: Primary Screen IC50
T1 construct: This preparation is used as the isolated mitochondrial preparation; from tissue; host or cells: rat heart (atria removed), isolated mitochondria
T1 sequence (Q63704 1-772): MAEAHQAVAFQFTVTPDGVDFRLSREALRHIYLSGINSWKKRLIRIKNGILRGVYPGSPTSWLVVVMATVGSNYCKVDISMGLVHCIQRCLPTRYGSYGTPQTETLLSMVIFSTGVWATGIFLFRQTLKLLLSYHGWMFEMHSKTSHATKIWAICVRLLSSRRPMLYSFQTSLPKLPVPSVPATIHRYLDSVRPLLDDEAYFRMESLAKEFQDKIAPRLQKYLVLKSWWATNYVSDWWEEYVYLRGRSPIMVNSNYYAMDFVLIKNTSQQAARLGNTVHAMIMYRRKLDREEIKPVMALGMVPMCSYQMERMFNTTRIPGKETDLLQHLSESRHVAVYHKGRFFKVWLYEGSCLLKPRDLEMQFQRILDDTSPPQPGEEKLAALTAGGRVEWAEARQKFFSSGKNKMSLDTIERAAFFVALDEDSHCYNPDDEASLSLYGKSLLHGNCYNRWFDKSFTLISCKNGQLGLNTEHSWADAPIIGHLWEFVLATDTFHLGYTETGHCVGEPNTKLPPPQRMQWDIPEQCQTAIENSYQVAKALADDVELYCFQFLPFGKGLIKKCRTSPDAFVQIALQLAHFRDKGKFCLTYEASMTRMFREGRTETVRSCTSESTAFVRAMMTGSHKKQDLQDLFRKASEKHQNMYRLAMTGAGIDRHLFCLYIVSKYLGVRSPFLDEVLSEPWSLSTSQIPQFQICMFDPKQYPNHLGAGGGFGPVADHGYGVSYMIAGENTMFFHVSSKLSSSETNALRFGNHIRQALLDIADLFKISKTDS
Procedure: Primary Screen--Inhibitors of CAT-1 in 1Mitochondria
(a). Preparation of Mitochondria
The heart is rapidly removed from an anesthetized rat (sodium pentabarbitol) and placed in ice-cold homogenization buffer (sucrose, 250 mM; Tris, 10 mM; EDTA, 1 mM; BSA, 0.01%; pH=7.4). The atria and extraneous tissue are removed and the remainder is chopped with scissors. The pieces are rinsed in homogenization buffer before being homogenized in 10 mL of the same buffer for 5-7 seconds. The homogenate is then diluted with homogenization buffer (40 total volume) and centrifuged at 200 g for 20 minutes. The supernatant is withdrawn and centrifuged at 7000 g for 20 minutes and the resulting pellet is isolated, resuspended in 40 mL of homogenization buffer and centrifuged once more at 7000 g for 20 minutes. The isolated pellet is resuspended in 10 mL of homogenization buffer and stored at 4° C. until use. This preparation is used as the isolated mitochondrial preparation.
(b). Inhibition of CAT-1 assay
Isolated mitochondria (20 μL) are incubated with 60 μL of Tris/sucrose buffer (sucrose, 500 mM; Tris, 20 mM; KCl, 100 mM; EDTA, 2 mM; pH=7.0 plus 83 μM palmitoyl CoA, and BSA, 0.8 mg/mL and 10^-4 to 10^-10 M of the drug to be tested. After 10 minutes at 30° C., the reaction is started by addition of 10 μL of ^3 H-carnitine (final concentration=250 μM). After 5 minutes, the reaction is terminated by the addition of ice cold 70% perchloric acid (PCA). The precipitated solids so formed, containing the insoluble product of the enzyme palmitoyl carnitine, are captured on filter paper. The filter paper is washed with 7% PCA, then dried and placed in scintillation vials with 10 mL of scintillant (Aquasol, New England Nuclear) and counted for radioactivity. The rate of the reaction is assessed by the difference in radioactivity between zero time and five minutes in the absence of test compound. The ability of test compounds at selected concentrations to inhibit CAT-1 is determined by their ability to reduce the formation of the radioactive product. The IC50 of the test compound is the concentration of test compound that reduces the formation of radioactive product by 50%.

[2] = molecular target: T1, CAT-1 (carnitine acyltransferase 1); experiment: Secondary Screen--Inhibition of CAT-1 in intact cardiac myocytes (hypoxia-induced increase in long-chain acylcarnitines); format: cell-based; design: inhibition: dose or concentration left out as unconfirmed; conditions: isolated rat cardiac myocytes; for IC50: 50% inhibition of hypoxia-induced increase in long-chain acylcarnitines; for inhibition: hypoxia
Procedure: Secondary Screen--Inhibition of CAT-1 in intact Cardiac Myocytes
(a) Preparation of Isolated Rat Cardiac Myocytes
Four hearts are excised from anesthetized rats and perfused retrogradly via the Langendorf technique. Each heart receives 100 mL of Krebs (NaCl, 118.4 mM; KCL, 4.6 mM; NaH2 PO4, 1.0 mM; NaHCO3, 20 mM; MgSO4, 2 mM; CaCl2, 50 μM; glucose, 11.0 mM), 100 mL of Ca++ free Krebs and finally 100 mL of 0.5% collagenase (Boehringer Mannhelm, type 1) in Hepes (NaCl, 115 mM; KCl, 5 mM; sucrose, 35 mM; glucose, 10 mM; Hepes, 10 mM; taurine, 4 mM; MgSO4, 2 mM; CaCl2, 50 μM). After these perfusions, the hearts are chopped into pieces, approx. 0.5 cm×0.5 cm and placed in four 125 mL plastic bottles along with 25 mL of collagenase/Hepes situated in a water bath maintained at 35° C. The pieces of cardiac tissue in each bottle are agitated by using a Harvard respirator connected to four glass syringes, which sucks the tissue up and down each tube during each respiratory cycle. After fifteen minutes, the collagenase/Hepes is removed and replaced with fresh collegenase/Hepes and the process repeated. The collegenase/Hepes from the subsequent fifteen minute harvests are centrifuged at 500 g to pellet the cells which are then resuspended in Hepes buffer. After six harvests, all cells are pelleted, resuspended in 2×26.5 mL of Hepes plus BSA (350 mg) and layered on top of 2×percoll gradients (21.15 mL percoll, 2.35 mL NaCl, 6 drops acetic acid). This is centfifuged at 3000 g for eight minutes forming a percoll gradient which results in viable cells being separated from damaged cells. The viable cells are removed, washed with Hepes and finally resuspended in 25 mL of Hepes.
The isolated cardiac myocytes (2 mL; approximately 1×10^6 cells) are separated into six glass pods. Into four of these are placed selected concentrations of the compound to be tested, and the cells are incubated for twenty minutes, after which the pods are centrifuged at 300 g for three minutes. 300 μL of normoxic Hepes is placed in one of the pods not containing compound and then all pods are placed in a hypoxic chamber (N2 atmosphere). Oxygen is fed via small bore steel tubes to the pod containing the normoxic buffer, while the other five pods receive pre-purified argon (99.998% pure). After two minutes, Hepes (pre-gassed with argon for at least twelve hours) is fed into the five hypoxic pods. This hypoxic environment (pO2 <10 mm Hg) is maintained for twenty minutes, after which the cells and pods are frozen by contact with a metal block precooled in liquid N2. The pods are then removed from the chamber and stored at -70° C. The carnitine assay is performed, as described below in (c), to determine the amount of long-chain acylcarnitine in the cells from the normoxic, hypoxic and hypoxic plus compound samples. […] Thus the IC50 in this screen is the concentration of test compound which produces a 50% inhibition of the hypoxia-induced increase in long-chain acylcarnitines.
(c) Long-chain Acylcarnitine Assay.
The frozen cell samples are thawed, mixed and homogenized with 40 μL of 70% PCA. The homogenate is transferred to eppendorf tubes while the homogenization tube and the glass pod is rinsed with 500 μL of 7% PCA, with the rinse being added to the eppendorf tube. This is then centrifuged at 1000 g for two minutes to pellet the precipitate (containing the long-chain acylcarnitine) and the supernatant is discarded. The pellet is washed twice with 500 μL of 7% PCA, the supernatants being discarded. The pellet is then hydrolyzed (to separate the acyl unit from carnitine to yield free carnitine) by the addition of 200 μL of aleionized H2 O and 50 μL of 5N KOH and incubated at 70° C. for ninety minutes.

Row | Structure (SMILES) | IC50 [1] [µM] | IC50 [2] [µM] | inhibition [2] [%]
1 | CCCc1c(OCCCOc2ccc(C(=O)C(=O)O)cc2)ccc(C(C)=O)c1O [Example 257, 4-[3-(4-acetyl-3-hydroxy-2-propylphenoxy)propoxy]-alpha-oxobenzeneacetic acid] | 0.38 | 0.1 | 
2 | O=C(O)C(=O)c1ccc(OCCCCOc2ccccc2)cc1 [Example 71, alpha-oxo-4-[[(4-phenoxy)butyl]oxy]benzeneacetic acid] | 0.4 | 20 | 
3 | CN(C)CCOC(=O)C(=O)c1ccc(OCCOc2ccc3ccccc3c2)s1 [Example 6, 5-[[2-(2-naphthalenyloxy)ethyl]oxy]-alpha-oxo-2-thiopheneacetic acid 2-(dimethylamino)ethyl ester] | 0.04 | 0.3 | 
4 | O=C(O)C(=O)c1ccc(OCCOC23CC4CC(CC(C4)C2)C3)cc1 [Example 103, alpha-oxo-4-[[2-[tricyclo(3.3.1.1-3,7)dec-1-yloxy]ethyl]oxy]benzeneacetic acid] | 1.5 | 40 | 
5 | O=C(O)C(=O)c1ccc(OCCCCc2ccccc2)cc1 [Example 25, 4-[(4-phenybutyl)oxy]-alpha-oxobenzeneacetic acid] | 2 | 12 | 
6 | O=C(O)C(=O)c1ccc(OCCOc2ccc3ccccc3c2)c(Cl)c1 [Example 185, 3-chloro-4-[2-(2-naphthalenyloxy)ethoxy]-alpha-oxobenzeneacetic acid] | 0.08 | 12 | 
7 | CO/N=C(\C(=O)O)c1ccc(OCCOc2ccc3ccccc3c2)s1 [Example 307, (E)-alpha-(methoxyimino)-5-[2-(2-naphthalenyloxy)ethoxy]-2-thiopheneaceticacid] | 1.5 | 5 | 
8 | O=C(O)C(=O)c1ccc(OCCCn2c(=O)c3ccccc3c3ccccc32)cc1 [Example 262, 4-[3-(5,6-dihydro-6-oxo-5-phenanthridinyl)propoxy]-alpha-oxobenzeneacetic acid] | 1 |  | 99
9 | O=C(O)C(=O)c1ccc(OCCSc2ccc3ccccc3c2)cc1 [Example 90, 4-[[2-(2-naphthalenylthio)ethyl]oxy]-alpha-oxobenzeneacetic acid] | 0.27 | 28 | 
10 | CCC(C)(C)C(=O)OCc1cccc(C)c1/C=C/COc1ccc(C(=O)C(=O)O)cc1 [Example 220, (E)-4-[3-[2-[(2,2-dimethyl-1-oxobutoxy)methyl]-6-methylphenyl]-2-propenyloxy]-alpha-oxobenzeneacetic acid] | 1.6 | 0.09 | 
11 | O=C(O)C(=O)c1ccc(OCCCc2ccc3ccccc3c2)cc1 [Example 94, 4-[[3-(2-naphthalenyl)propyl]oxy]-alpha-oxobenzeneacetic acid] | 0.08 | 12 | 
12 | O=C(O)C(F)(F)c1ccc(OCCOc2ccc3ccccc3c2)cc1 [Example 13, alpha, alpha-difluoro-4-[[2-(2-naphthalenyloxy)ethyl]oxy]benzeneacetic acid] | 1.75 | 3.8 | 
13 | O=C(O)C(=O)c1c(F)cc(OCCOc2ccc3ccccc3c2)cc1F [Example 201, 2,6-difluoro-4-[2-(2-naphthalenyloxy)ethoxy]-alpha-oxobenzeneacetic acid] | 0.83 | 7 | 
14 | O=C(O)C(=O)c1ccc(C#CCOc2ccc3ccccc3c2)cc1 [Example 142, 4-[3-(2-naphthalenyloxy)-1-propynyl]-alpha-oxobenzeneacetic acid] | 1.8 | 20 | 
15 | O=C(O)C(=O)c1ccc(OCCOc2ccc3ccccc3c2)cc1Cl [Example 187, 2-chloro-4-[2-(2-naphthalenyloxy)ethoxy]-alpha-oxobenzeneacetic acid] | 0.3 | 9 | 
16 | O=C(O)C(=O)c1ccc(OCC(=O)N2CCC(c3ccccc3)CC2)cc1 [Example 245, alpha-oxo-4-[2-oxo-2-(4-phenyl-1-piperidinyl)ethoxy]benzeneacetic acid] | 0.06 |  | 33
17 | O=C(O)C(=O)c1ccc(OCCOC2CCCCCCC2)cc1 [Example 101, 4-[[2-(cyclooctyloxy)ethyl]oxy]-alpha-oxobenzeneacetic acid] | 0.9 | 50 | 
18 | CCC(C)(C)C(=O)OCc1cccc(C)c1/C=C\COc1ccc(C(=O)C(=O)O)cc1 [Example 215, (Z)-4-[3-[2-(2,2-dimethyl-1-oxobutoxy)methyl]-6-methylphenyl]-2-propenyloxy]-alpha-oxobenzeneacetic acid (1:1) morpholine salt] | 2 | 9 | 

Row | Structure (SMILES) | IC50 [1] [µM] | IC50 [2] [µM] | inhibition [2] [%]
19 | O=C(O)C(=O)c1ccc(OCCSc2ccccc2)cc1 [Example 82, alpha-oxo-4-[[2-(phenylthio)ethyl]oxy]benzeneacetic acid] | 0.3 | 17.5 | 
20 | CCC(C)(C)C(=O)OCc1cccc(C)c1CCCOc1ccc(C(=O)C(=O)O)cc1 [Example 223, 4-[3-[2-[(2,2-dimethyl-1-oxobutoxy)methyl]-6-methylphenyl]propoxy]-alpha-oxobenzeneacetic acid] | 1.1 | 0.09 | 
21 | O=C(O)C(=O)c1ccc(OCC(=O)c2ccc3ccccc3c2)cc1 [Example 157, 4-[2-(2-naphthalenyl)-2-oxoethoxy]-alpha-oxobenzeneacetic acid] | 0.05 | 0.3 | 
22 | CC(C)c1cccc(-c2ccc(F)cc2)c1/C=C/COc1ccc(C(=O)C(=O)O)cc1 [Example 229, (E)-4-[3-[4'-fluoro-3-(1-methylethyl)[1,1'-biphenyl]-2-yl]-2-propenyloxy]-alpha-oxobenzeneacetic acid] | 9 | 1 | 
23 | O=C(O)C(=O)c1ccc(OCCOc2ccc3ccccc3c2)s1 [Example 4, 5-[[2-(2-naphthalenyloxy)ethyl]oxy]-alpha-oxo-2-thiopheneacetic acid] | 0.05 | 1 | 
24 | O=C(O)/C(=N\O)c1ccc(OCCOc2ccc3ccccc3c2)cc1 [Example 301, (Z)-alpha-(hydroxyimino)-4-[2-(2-naphthalenyloxy)ethoxy]benzeneacetic acid] | 0.58 | 2 | 
25 | O=C(O)C(=O)c1ccc(OCCCCOc2ccc3ccccc3c2)cc1 [Example 88, 4-[[4-(2-naphthalenyloxy)butyl]oxy]-alpha-oxobenzeneacetic acid] | 0.17 | 3.5 | 
26 | CCC(C)(C)C(=O)OCc1cccc(C)c1C#CCOc1ccc(C(=O)C(=O)O)cc1 [Example 212, 4-[3-[2-[(2,2-dimethyl-1-oxobutoxy)methyl]-6-methylphenyl]-2-propynyloxy]-alpha-oxobenzeneacetic acid (1:1) morpholine salt] | 0.47 |  | 47
27 | CCC(C)(C)C(=O)OCc1cccc(C)c1OCCOc1ccc(C(=O)C(=O)O)cc1 [Example 136, 4-[[2-[2-[(2,2-Dimethyl-1-oxobutoxy)methyl]-6-methylphenoxy]ethyl]oxy]-alpha-oxobenzeneacetic acid (2:1) hydrate] | 7.7 | 0.9 | 
28 | O=C(O)C(=O)c1ccc(OCCOC2CCCCCCC2)s1 [Example 9, 5-[[2-(cyclooctyloxy)ethyl]oxy]-alpha-oxo-2-thiopheneacetic acid] | 1.8 | 8 | 
29 | CN(C)CCOC(=O)C(=O)c1ccc(OCCOc2ccc3ccccc3c2)cc1 [Example 106, 4-[[2-(2-naphthalenyloxy)ethyl]oxy]-alpha-oxobenzeneacetic acid 2-(dimethylamino)ethyl ester] | 0.09 | 1 | 
30 | O=C(O)C(=O)c1ccc(OCCOc2ccc3ccccc3c2)c(F)c1 [Example 199, 3-fluoro-4-[2-(2-naphthalenyloxy)ethoxy]-alpha-oxobenzeneacetic acid] | 0.17 | 0.6 | 
31 | O=C(O)C(=O)c1ccc(OCCOc2ccc3ccccc3c2)cc1F [Example 197, 2-fluoro-4-[2-(2-naphthalenyloxy)ethoxy]-alpha-oxobenzeneacetic acid] | 0.16 | 6 | 
32 | CCC(C)(C)C(=O)OCc1cccc(C)c1OCCOc1ccc(/C(=N/OC)C(=O)O)cc1 [Example 304, (Z)-4-[2-[2-[(2,2-Dimethyl-1-oxobutoxy)methyl]-6-methylphenyloxy]ethoxy]-alpha-methoxyiminobenzeneacetic acid] | 3.3 | 5 | 
33 | O=C(O)C(=O)c1ccc(OCC(=O)c2cccc3ccccc23)cc1 [Example 284, 4-[2-(1-naphthalenyl)-2-oxoethoxy]-alpha-oxobenzeneacetic acid] | 0.03 | 0.8 | 
34 | O=C(O)C(=O)c1ccc(OCCCc2ccccc2)cc1 [Example 23, 4-[(3-phenylpropyl)oxy]-alpha-oxobenzeneacetic acid] | 0.5 | 37 | 
35 | CC(C)(C)c1ccc(C(=O)COc2ccc(C(=O)C(=O)O)cc2)cc1 [Example 286] | 0.3 | 1.2 | 
